Patent publication US20070135490A1, “Phenetanolamine derivatives” (priority 2003, published 2007)

biological target: T1, human beta-2 receptor (Homo sapiens, UniProt P07550); assay: Chinese hamster ovary cells co-expressing the human receptor with a reporter gene, cAMP measurement in whole cells or membranes (Method 2); format: cell-based; details: CHO cells or membranes
T1 construct: expressed in transfected cells; host or cells: Chinese hamster ovary cells (whole cells or membranes derived from them)
Protocol: Potency of compounds of the invention at the human beta 2, 1 and 3 receptors was also determined using Chinese hamster ovary cells co-expressing the human receptor with a reporter gene. Studies were performed using either whole cells or membranes derived from those cells.
The three beta-receptors are coupled via the Gs G-protein to cause a simulation of adenylate cyclase resulting in increased levels of cAMP in the cell. For direct cAMP measurements either membranes or cells have been used with either the HitHunter enzyme fragment complementation kit (DiscoveRx) or the FP^2 fluorescence polarisation kit (Perkin Elmer) to quantify the levels of cAMP present. These assays provide a measure of agonist potency and intrinsic activity of the compounds at the various receptors. […]
In this assay the potency of compounds at the human beta-2 receptor is expressed as a pEC50 value. Compounds of examples 12-26, 28-50 and 52-64 had pEC50 values greather than 6. […] No result is available for the compound of example 51.

Compound	pEC50 at the human beta-2 receptor
Formic acid compound with 4-((1R)-1-hydroxy-2-{[2-(3-{[3-(2-hydroxyphenyl)propoxy]methyl}phenyl)ethyl]amino}ethyl)-2-(hydroxymethyl)phenol (1:1) [Example 27]	less than 6

same assay, conditions: CHO cells or membranes, read-out: pEC50 at the human beta-2 receptor (converted)

EC50	Compound
< 1000 nM	[O-][S+](c1cccc(COCCOCc2cccc(CCNC[C@H](O)c3ccc(O)c(CO)c3)c2)c1)C1CCCC1 (stereo partly drawn) [Example 34, Formic acid compound with 4-{(1R)-2-[(2-{3-[(2-{[3-(cyclopentylsulfinyl)benzyl]oxy}ethoxy)methyl]phenyl}ethyl)amino]-1-hydroxyethyl}-2-(hydroxymethyl)phenol (1:1)]
< 1000 nM	OCc1cc([C@@H](O)CNCCc2cccc(COCCCc3c(Cl)cccc3Cl)c2)ccc1O [Example 63, Formic acid compound with 4-((1R)-2-{[2-(3-{[3-(2,6-dichlorophenyl)propoxy]methyl}phenyl)ethyl]amino}-1-hydroxyethyl)-2-(hydroxymethyl)phenol (1:1)]
< 1000 nM	N#Cc1cccc(CCCCOCc2cccc(CCNC[C@H](O)c3ccc(O)c(CO)c3)c2)c1 [Example 37, Formic acid compound with 3-[4-({3-[2-({(2R)-2-hydroxy-2-[4-hydroxy-3-(hydroxymethyl)phenyl]ethyl}amino)ethyl]benzyl}oxy)butyl]benzonitrile (1:1)]
< 1000 nM	NS(=O)(=O)c1cccc(CCOCc2cccc(CCNC[C@H](O)c3ccc(O)c(CO)c3)c2)c1 [Example 55, Formic acid compound with 3-[2-({3-[2-({(2R)-2-hydroxy-2-[4-hydroxy-3-(hydroxymethyl)phenyl]ethyl}amino)ethyl]benzyl}oxy)ethyl]benzenesulfonamide (1:1)]
< 1000 nM	OCc1cc([C@@H](O)CNCCc2cccc(COCCc3ccccc3F)c2)ccc1O [Example 41, Formic acid compound with 4-((1R)-2-{[2-(3-{[2-(2-fluorophenyl)ethoxy]methyl}phenyl)ethyl]amino}-1-hydroxyethyl)-2-(hydroxymethyl)phenol (1:1)]
< 1000 nM	O=S(=O)(c1cccc(CCOCc2cccc(CCNC[C@H](O)c3ccc(O)c(CO)c3)c2)c1)C1CCCC1 [Example 60, Formic acid compound with 4-[(1R)-2-({2-[3-({2-[3-(cyclopentylsulfonyl)phenyl]ethoxy}methyl)phenyl]ethyl}amino)-1-hydroxyethyl]-2-(hydroxymethyl)phenol (1:1)]
< 1000 nM	O=S(=O)(c1ccc(CCCOCc2cccc(CCNC[C@H](O)c3ccc(O)c(CO)c3)c2)cc1)C1CCCC1 [Example 30, Formic acid compound with 4-[(1R)-2-({2-[3-({3-[4-(cyclopentylsulfonyl)phenyl]propoxy}methyl)phenyl]ethyl}amino)-1-hydroxyethyl]-2-(hydroxymethyl)phenol (1:1)]
< 1000 nM	OCc1cc([C@@H](O)CNCCc2cccc(COCc3c(Cl)cccc3Cl)c2)ccc1O [Example 47, Formic acid compound with 4-((1R)-2-{[2-(3-{[(2,6-dichlorobenzyl)oxy]methyl}phenyl)ethyl]amino}-1-hydroxyethyl)-2-(hydroxymethyl)phenol (1:1)]
< 1000 nM	OCc1cc([C@@H](O)CNCCc2cccc(COCc3ccc(O)cc3)c2)ccc1O [Example 26, Formic acid compound with 4-((1R)-1-hydroxy-2-{[2-(3-{[(4-hydroxybenzyl)oxy]methyl}phenyl)ethyl]amino}ethyl)-2-(hydroxymethyl)phenol (1:1)]
< 1000 nM	NS(=O)(=O)c1cccc(CCCOCc2cccc(CCNC[C@H](O)c3ccc(O)c(CO)c3)c2)c1 [Example 56, Formic acid compound with 3-[3-({3-[2-({(2R)-2-hydroxy-2-[4-hydroxy-3-(hydroxymethyl)phenyl]ethyl}amino)ethyl]benzyl}oxy)propyl]benzenesulfonamide (1:1)]
< 1000 nM	Cc1cc(C)cc(COCc2cccc(CCNC[C@H](O)c3ccc(O)c(CO)c3)c2)c1 [Example 46, Formic acid compound with 4-((1R)-2-{[2-(3-{[(3,5-dimethylbenzyl)oxy]methyl}phenyl)ethyl]amino}-1-hydroxyethyl)-2-(hydroxymethyl)phenol (1:1)]
< 1000 nM	OCc1cc([C@@H](O)CNCCc2cccc(COCCc3ccccc3O)c2)ccc1O [Example 25, Formic acid compound with 4-((1R)-1-hydroxy-2-{[2-(3-{[2-(2-hydroxyphenyl)ethoxy]methyl}phenyl)ethyl]amino}ethyl)-2-(hydroxymethyl)phenol (1:1)]
< 1000 nM	C[C@H](OCc1cccc(CCNC[C@H](O)c2ccc(O)c(CO)c2)c1)c1ccccc1 [Example 45, Formic acid compound with 2-(hydroxymethyl)-4-[(1R)-1-hydroxy-2-({2-[3-({[(1S)-1-phenylethyl]oxy}methyl)phenyl]ethyl}amino)ethyl]phenol (1:1)]
< 1000 nM	NS(=O)(=O)c1cccc(COCc2cccc(CCNC[C@H](O)c3ccc(O)c(CO)c3)c2)c1 [Example 64, 3-[({3-[2-({(2R)-2-Hydroxy-2-[4-hydroxy-3-(hydroxymethyl)phenyl]ethyl}amino)ethyl]benzyl}oxy)methyl]benzenesulfonamide acetate]
< 1000 nM	CS(=O)(=O)c1ccc(COCc2cccc(CCNC[C@H](O)c3ccc(O)c(CO)c3)c2)cc1 [Example 24, Formic acid compound with 2-(hydroxymethyl)-4-[(1R)-1-hydroxy-2-({2-[3-({[4-(methylsulfonyl)benzyl]oxy}methyl)phenyl]ethyl}amino)ethyl]phenol (1:1)]
< 1000 nM	N#Cc1ccc(CCCOCc2cccc(CCNC[C@H](O)c3ccc(O)c(CO)c3)c2)cc1 [Example 20, Formic acid compound with 4-[3-({3-[2-({(2R)-2-hydroxy-2-[4-hydroxy-3-(hydroxymethyl)phenyl]ethyl}amino)ethyl]benzyl}oxy)propyl]benzonitrile (1:1)]

Compound	EC50
OCc1cc([C@@H](O)CNCCc2cccc(COCCCCc3c(Cl)cccc3Cl)c2)ccc1O [Example 57, Formic acid compound with 4-((1R)-2-{[2-(3-{[4-(2,6-dichlorophenyl)butoxy]methyl}phenyl)ethyl]amino}-1-hydroxyethyl)-2-(hydroxymethyl)phenol (1:1)]	< 1000 nM
[O-][S+](c1cccc(CCCCOCc2cccc(CCNC[C@H](O)c3ccc(O)c(CO)c3)c2)c1)C1CCCC1 (stereo partly drawn) [Example 36, Formic acid compound with 4-[(1R)-2-({2-[3-({4-[3-(cyclopentylsulfinyl)phenyl]butoxy}methyl)phenyl]ethyl}amino)-1-hydroxyethyl]-2-(hydroxymethyl)phenol (1:1)]	< 1000 nM
CS(=O)(=O)c1cccc(CCCCOCc2cccc(CCNC[C@H](O)c3ccc(O)c(CO)c3)c2)c1 [Example 62, Formic acid compound with 2-(hydroxymethyl)-4-[(1R)-1-hydroxy-2-({2-[3-({4-[3-(methylsulfonyl)phenyl]butoxy}methyl)phenyl]ethyl}amino)ethyl]phenol (1:1)]	< 1000 nM
O=S(=O)(c1cccc(CCCCOCc2cccc(CCNC[C@H](O)c3ccc(O)c(CO)c3)c2)c1)C1CCCC1 [Example 61, Formic acid compound with 4-[(1R)-2-({2-[3-({4-[3-(cyclopentylsulfonyl)phenyl]butoxy}methyl)phenyl]ethyl}amino)-1-hydroxyethyl]-2-(hydroxymethyl)phenol (1:1)]	< 1000 nM
